In the NIST ThermoML archive (doi:10.1021/je700260f):

Settings: 333.16 K, Liquid, Vibrating tube method

FC(C(F)(F)F)C(F)(F)F [1,1,1,2,3,3,3-heptafluoropropane]
Settings	mass density [kg/m3]
12443 kPa	1344.2
12466 kPa	1344.3
12886 kPa	1347.5
12914 kPa	1347.5
12942 kPa	1347.8
12966 kPa	1347.9
12994 kPa	1348.2
13023 kPa	1348.2
13053 kPa	1348.6
13082 kPa	1348.9
13115 kPa	1349.1
13140 kPa	1349.1
13164 kPa	1349.4
13196 kPa	1349.7
13220 kPa	1349.7
13244 kPa	1349.9
13272 kPa	1350.2
13304 kPa	1350.5
13324 kPa	1350.5
13344 kPa	1350.6
13368 kPa	1350.9
13394 kPa	1351.1
13432 kPa	1351.2
13461 kPa	1351.4
13494 kPa	1351.7
13518 kPa	1351.9
13633 kPa	1352.7
13666 kPa	1352.9
13690 kPa	1353
13724 kPa	1353.1
13921 kPa	1354.7
13954 kPa	1354.9
13991 kPa	1355.1
14017 kPa	1355.3
14050 kPa	1355.5
14075 kPa	1355.8
14106 kPa	1355.9
14140 kPa	1356.2
14828 kPa	1360.7
14853 kPa	1360.9
14892 kPa	1361.2
14922 kPa	1361.4
14953 kPa	1361.5
14979 kPa	1361.7
15001 kPa	1361.9
15034 kPa	1362.1
15054 kPa	1362.3
15081 kPa	1362.5
15117 kPa	1362.6
15153 kPa	1362.8
15179 kPa	1363
15260 kPa	1363.6
15320 kPa	1364
15346 kPa	1364.2
15370 kPa	1364.4
15404 kPa	1364.4
15436 kPa	1364.7
15464 kPa	1364.9
15500 kPa	1365.2
15533 kPa	1365.2
15561 kPa	1365.5
15593 kPa	1365.8
15630 kPa	1366
15658 kPa	1366.2
15689 kPa	1366.4
15953 kPa	1368
15985 kPa	1368.1
16013 kPa	1368.3
16049 kPa	1368.5
16085 kPa	1368.9
16105 kPa	1369.1
16141 kPa	1369.2
16169 kPa	1369.4
16193 kPa	1369.6
16223 kPa	1369.6
16248 kPa	1370
16281 kPa	1370.1
16314 kPa	1370.3
16339 kPa	1370.4
16363 kPa	1370.5
16388 kPa	1370.7
16416 kPa	1370.9
16540 kPa	1371.7
16572 kPa	1371.9
16600 kPa	1372
16655 kPa	1372.4
16788 kPa	1373.2
16821 kPa	1373.3
16850 kPa	1373.5
16876 kPa	1373.7
16909 kPa	1373.8
16937 kPa	1374.2
16964 kPa	1374.2
16992 kPa	1374.4
17013 kPa	1374.5
17038 kPa	1374.7
17063 kPa	1374.9
17088 kPa	1374.9
17109 kPa	1375.2
17137 kPa	1375.3
17162 kPa	1375.4
17189 kPa	1375.7
17215 kPa	1375.7
